# “Also recorded” adds a separate entry of the source.
# Assays:
# [1] = system: mouse embryonic fibroblasts; test: Basal 2-deoxyglucose uptake in fibroblasts; format: cell-based; settings: 3 h, 893 5 or 10 μM
# Method: Glucose uptake assays were performed using the Glucose-Glo™ uptake Kit according to manufacturer's instructions (cat # J1342, Promega, Madison, Wis.). For basal glucose uptake in MEFs, cells were plated the night before in 96-well black, clear-bottom plates. Cells were treated for 3 h, washed once in PBS, then pulsed with 1 mM 2-DG in glucose-free media containing their respective drug treatments. After 10 min, the reaction was quenched and developed according to manufacturer's protocol. To assay insulin-stimulated glucose uptake, mature adipocytes in 96-well black clear-bottom plates were serum starved for 16 h. Cells were treated in serum-free media supplemented with 0.2% fatty-acid free BSA for 3 h. Cells were washed once in PBS and incubated in glucose-free media with their respective drug treatments, with or without 100 nM bovine insulin, for 15 min. A concentrated 2-DG stock was added directly to wells for 10 min (1 mM final concentration), then the reaction stopped and developed according to manufacturer's protocol.
# [2] = system: C16:0 ceramide generation (CerS6); test: C16:0 ceramide levels in palmitate-treated MEFs (UPLC-MS/MS); format: cell-based, mouse
# Method: Plasma pharmacokinetic analysis of sphingolipid-like compound 893 was performed by Pharmaron Corporation (Beijing, China). C16:0 ceramide levels were quantified in cells using the method described in (T. Kasumov, et al., Anal. Biochem. 401: 154-161, 2010, the disclosure of which is incorporated herein by reference) with minor modifications. Cultured cells were washed twice in PBS and scraped into 250 μL of HPLC grade water and flash frozen until time of analysis. On the day of analysis, samples were thawed, and an aliquot used for protein quantification. For C16:0 ceramide levels in mouse liver, 25 mg of tissue was homogenized in 1 ml of ice-cold PBS using a mechanical probe homogenizer (VWR, Radnor, Pa.), protein levels quantified, and 50 μl of the homogenate diluted with 150 μl HPLC-grade water for C16:0 ceramide analysis. Fifty ng of C17:0 ceramide prepared in ethanol (#22532, Cayman Chemical, Ann Arbor, Mich.) was added into 200 μL of the thawed cell suspension or liver homogenate as an internal standard to control for varying extraction efficiency; 750 μL of an ice-cold 1:2 chloroform/methanol mixture was then added. Samples were sonicated for 30 min and phase separation induced by the addition of 250 μL each of chloroform and HPLC-grade water. Samples were centrifuged at 4° C. for 10 min and the lower lipid phase transferred to a clean tube. The remaining protein and aqueous layers were re-extracted with an additional 500 μL of chloroform. Lipid phases were combined and then dried under vacuum. Dried extract was re-constituted in 100% acetonitrile immediately before analysis. Samples were analyzed by ultra-performance liquid chromatography tandem mass spectrometry (UPLC-MS/MS) using a Waters Micromass Quattro Premier XE equipped with a Waters ACQUITY BEH C4 column (Waters Corp.). Samples were resolved starting at 60% mobile phase A (10 mM ammonium acetate and 0.05% formic acid in water) to 98% mobile phase B (60:40 acetonitrile:isopropanol) over 3 min with a linear gradient, held at 98% B for 1 min, then the column was equilibrated with 60% A for 1 min. The mass spectrometer was operated in positive ion mode with the following parameters: cone voltage 20 V, source temperature 125° C., desolvation temperature 400° C. Ion transition channels for MS/MS were 538→264 for C16:0 ceramide and 552→264 for C17:0 ceramide, both with a dwell time of 285 ms. Standard curves prepared from C16:0 ceramide (#860516, Avanti Polar Lipids, Alabaster, Ala.) dissolved in ethanol were used for quantitation and were linear from 4.1 nM-1,000 nM, with an R^2 of 0.98 or greater.
# 3T3-L1 cells were maintained in DMEM with 10% FBS and 1% penicillin-streptomycin until induced to differentiate. […]
compound,measurement,setting,value
CCCCCCCCc1ccc([C@H]2CCN[C@@H]2CO)cc1.Cl [compound 893],Constitutive glucose uptake,[1],constitutive glucose uptake in fibroblasts was reduced
same,Palmitate-induced C16:0 ceramide production,"[2]; MEFs, 3 h pre-treatment (893 5 μM, myriocin 10 μM, fumonisin B1 30 μM) then palmitate 250 μM 3 h",failed to block C16:0 ceramide generation; also recorded: without blocking palmitate-induced ceramide production
same,CerS6 inhibition,[2]; inferred from C16:0 ceramide generation in palmitate-treated cells,did not inhibit CerS6
